Assay results taken from patent US12611415B2, “Methods and compounds for treatment of metabolic disease” (Monash University, priority 2019, dated 2026).

Columns and labels:
[1] = tested on: mice reintroduced to a high-fat diet; test: HFD rechallenge study (FIG. 9); format: in vivo, mouse; details: Cele-pro (CP30)
From the text: Details regarding treatment times and controls are shown in panel (a). Panels b-e show whole mount immunofluorescence images of the mesenteric afferent lymph vessels and cell nuclei in VAT of several mouse groups. Panels f-i show lymph “leakage” into surrounding VAT due to HFD-induced remodelling of the mesenteric lymphatics, as measured by intramucosal injection of Evans blue dye and lymphangiography. (j-m) n=5 (CFD), 5 (HFD), 6 (HFD rechallenge-Cele-pro (CP30)) and 5-7 (HFD rechallenge-CFD switch). (a-d) n=5 (CFD), 6 (HFD), 8 (HFD rechallenge-Cele-Pro (CP30)) and 7 (HFD rechallenge-CFD switch).

[2] = Systemic (plasma) exposure of celecoxib after oral gavage; format: in vivo, mouse; details: oral gavage 29 mg/kg in lipid based formulation (Compound I-1 equivalent to 8.3 mg/kg celecoxib), fasted mice
Method: To evaluate the systemic exposure of celecoxib and celecoxib prodrug Compound I-1, 29 mg/kg celecoxib or celecoxib prodrug (equivalent to 8.3 mg/kg celecoxib) were administered in a self-emulsifying lipid-based formulation consisting of oleic acid (Sigma Aldrich, Australia)/Cremophor RH40 (Sigma Aldrich, Australia)/ethanol (40:52.6:7.4, w/w/w). Drug and prodrug concentrations in the formulations were confirmed using HPLC-MS/MS as described below.
In addition to evaluating lymph uptake of celecoxib and celecoxib prodrug, a pharmacokinetic dose-determining study was conducted to determine a dose of celecoxib and celecoxib prodrug that produce higher lymphatic uptake but lower systemic plasma celecoxib exposure (i.e. lower plasma concentrations over time) after administration of the prodrug. […]
For HPLC-MS/MS analysis of celecoxib in plasma after dosing celecoxib or celecoxib prodrug Compound I-1, 200 μL acetonitrile was added to 20 μL samples of plasma and 5 μL of a 1 μg/mL solution of internal standard (5,5-diethyl-1,3-diphenyl-2-iminobarbituric acid) in acetonitrile. Samples were vortexed for 30 seconds and centrifuged at 4,500 g for 5 min, and 80 μL supernatant was analyzed for celecoxib concentration by HPLC-MS. […]

- plasma concentrations of celecoxib, compared to an equal mass of the parent drug [2]: lower
Compound: CCCCCCCCCCCCCCCC(=O)OCC(COC(=O)CCCCCCCCCCCCCCC)OC(=O)CCCCCCCCC(=O)Oc1cc(C)cc(C)c1C(C)(C)CC(=O)NS(=O)(=O)c1ccc(-n2nc(C(F)(F)F)cc2-c2ccc(C)cc2)cc1 [Compound I-1]
- beneficial effects after reintroducing the mice to a high-fat diet (HFD rechallenge) [1]: persist
